These results are taken from patent US12364673B2, “Methods and compositions for treating lysosomal storage disorders: ambroxol as treatment agent for Mucopolysaccharidoses III (Sanfilippo syndrome)” (Lysosomal and Rare Disorders Research and Treatment Center, …, priority 2019, dated 2025).

For data set [1], the system named is N-acetyl-alpha-glucosaminidase (NAGLU). The data set is described as follows: NAGLU enzyme activity in patient-derived PBMC. It is filed as cell-based, human. Conditions: PBMC from MPS III Type B patient, 5 days incubation. How it is done:
PBMC were cultured for 5 days with an increasing concentration of ambroxol. […] We measured enzyme activity in PBMC (peripheral blood mononuclear cell) derived from MPS III Type B patients with NAGLU enzyme deficiency. After incubation for five days in the presence of 1, 10, and 100 μM of ambroxol, NAGLU enzyme activity was measured and compared negative control versus ambroxol incubated cells (FIG. 1). […] PBMC were cultured for 5 days with an increasing concentration of ambroxol.

Data set [2] concerns PBMC. The data set is described as follows: Cell viability of ambroxol incubated PBMC. It is filed as cell-based, human. Conditions: 100 μM ambroxol.
Data set [3] has as its system PBMC. The data set is described as follows: ATP production of ambroxol incubated PBMC. Type of data set: cell-based, human. The note with it: 100 μM ambroxol.
In data set [4] the test system is heparan-alpha-glucosaminide N-acetyltransferase (HGSNAT). The data set is described as follows: HGSNAT enzyme activity in PBMC. It is filed as cell-based, human. As to the method:
PBMC were cultured for 5 days with an increasing concentration of ambroxol.
HGSNAT enzyme activity was measured and compared as negative control versus ambroxol incubated PBMC derived from a patient with MPS III Type C (FIG. 2).

Data set [5] relates to autophagy fusion with the lysosome. The data set is described as follows: Autophagy fusion staining with DALGreen detection reagent. It is filed as cell-based, human.
For data set [6], the system named is acidic lysosomes. The data set is described as follows: Lysosome staining with LysoTracker Red DND-99 dye. Type of data set: cell-based, human. How it is done:
To examine the effects of ambroxol on autophagy-lysosomal pathway, the autophagy dye […] and lysosome marker LysoTracker Red were used. […] The autophagy fusion was studied using autophagy detection reagent […] fluorescence probe stained autophagosome on late-phase autophagy when autophagosome fused with a lysosome. Lysosome organelles were analyzed using LysoTracker Red DND-99 red-fluorescent dye which stained acidic organelles in live cells. PBMC were isolated from the patient with MPS III-B disease, incubated five days with ambroxol, and then were stained. […] Macrophages derived from a patient with MPS III Type C.

The subject of data set [7] is heparan sulfate (HS). The data set is described as follows: Heparan sulfate ELISA in PBMC cell extracts. It is filed as cell-based, human. How it is done:
To investigate the effect of ambroxol on HS degradation, the heparin sulfate ELISA assay (Aviva Systems Siology) was assessed. PBMC derived from healthy controls and MPS III patients were incubated with a concentration of ambroxol 1, 10 and 100 μM. PBMC after five days of incubation were collected and heparan sulfate levels were measured in cells extracts.
In general terms: ELISA stands for enzyme-linked immunosorbent assay.

Data set [8] has as its target T1, glucocerebrosidase (GCase) (Homo sapiens, UniProt P04062).
T1 sequence (P04062 40-536): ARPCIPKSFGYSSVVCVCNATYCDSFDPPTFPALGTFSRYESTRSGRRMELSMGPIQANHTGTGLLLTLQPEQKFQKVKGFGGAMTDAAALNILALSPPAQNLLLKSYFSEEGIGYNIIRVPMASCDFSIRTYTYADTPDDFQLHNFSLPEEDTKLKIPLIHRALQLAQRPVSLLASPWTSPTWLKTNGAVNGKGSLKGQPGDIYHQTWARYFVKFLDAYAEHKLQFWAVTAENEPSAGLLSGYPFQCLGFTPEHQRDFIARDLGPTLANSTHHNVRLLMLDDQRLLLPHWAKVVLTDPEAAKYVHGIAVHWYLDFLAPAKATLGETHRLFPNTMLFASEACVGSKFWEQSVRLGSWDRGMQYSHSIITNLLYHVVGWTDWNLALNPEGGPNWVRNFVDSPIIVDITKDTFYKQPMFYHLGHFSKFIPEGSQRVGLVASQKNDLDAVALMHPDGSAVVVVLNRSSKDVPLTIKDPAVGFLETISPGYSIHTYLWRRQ
The note with it: pH 4.3, near lysosomal pH; cited from earlier work.

The subject of data set [9] is lysosomal integral membrane protein-2 (LIMP-2). The note with it: cited from earlier work.
Setting [10] is: PBMC from patient with MPS III-B, five days with ambroxol.
Setting [11] is: macrophages from patient with MPS III Type C, 5 days with ambroxol.

Regarding `Nc1c(Br)cc(Br)cc1CN[C@H]1CC[C@H](O)CC1` [ambroxol, trans-4-(2-Amino-3,5-dibromobenzylamino)-cyclohexanol], the “NAGLU enzyme activity increase vs negative control” value in data set [1] (1 μM ambroxol) and in data set [1] (10 μM ambroxol) was 15% throughout. Also, the NAGLU activity entry in data set [1] (100 μM ambroxol) was “Decreasing”. Also, in [2], the cell viability entry is “decreasing”. Also, the ATP production entry in data set [3] is given as “inhibition”. The HGSNAT activity result in data set [4] (PBMC from a healthy subject, ambroxol incubation (data not shown)) is “no increase”; in data set [4] (PBMC from a patient with MPS III Type C, 5 days ambroxol incubation), “no increase”. Further, the “autophagy fusion (DALGreen staining)” value in data set [5] (PBMC from healthy control, five days with ambroxol) is “significant increase”; in data set [5] (PBMC from two patients with MPS III-D, five days with ambroxol), “significant increase”. Besides, the “activity of autophagy fusion (DALGreen staining)” value in [5] (setting [10]) and in data set [5] (setting [11]) was “increasing” throughout. The “proportion of acidic lysosomes (LysoTracker Red staining)” value in data set [6] (setting [10]) and in [6] (setting [11]) was “significant increasing” in each case. In addition, the lysosome function entry in data set [6] (cells derived from healthy controls and MPS III-B, MPS III-C and MPS III-D patients (summary)) was “activates”. Besides, the “heparan sulfate (HS) level” value in data set [7] (PBMC from MPS III-A patient, 5 days with ambroxol, vs negative control) is on record as “decreased”; in data set [7] (PBMC from MPS III-B patient, 5 days, 10 μM ambroxol), “decreased”; in data set [7] (PBMC from MPS III-B patient, 5 days, 100 μM ambroxol) it was “decreased”; in [7] (PBMC from MPS III-C patient, 5 days with ambroxol, vs negative control), “decreasing”; in data set [7] (PBMC from MPS III-D patient, 5 days, 10 μM ambroxol), “decreased”; in [7] (PBMC from MPS III-D patient, 5 days, 100 μM ambroxol) it was “decreased”. In addition, the “heparan sulfate (HS) level” value in data set [7] (PBMC from healthy controls (n=4), 5 days with ambroxol, vs negative control) is given as “decreased”. Further, the “effect on GCase enzyme” value in data set [8] is on record as “activator”. Further, the LIMP-2 level result in data set [9] was “increased”.
